IC50 and inhibition data for 10 compounds are collected here from patent publication US20090270413A1, “DI-T-BUTYLPHENYL PIPERAZINES AS CALCIUM CHANNEL BLOCKERS” (priority 2008, published 2009).

What all share (format): cell-based
In assay [1] the target is T1, Cav3.2 (T-type channel alpha-1H) (Homo sapiens, UniProt O95180).
T1 construct: expressed in transfected cells; host or cells: HEK 293
Put plainly: T-type calcium channel voltage-clamp assay, Cav3.2. The conditions noted are these: read-out: Cav 3.2 IC50. As for the experimental part:
(§1) The T-type calcium channel blocking activity of the compounds of this invention may be readily determined using the methodology well known in the art described by Xia, et al., Assay and Drug Development Tech., 1 (5), 637-645 (2003).
(§2) In a typical experiment ion channel function from HEK 293 cells expressing the T-type channel alpha-1G, H, or I (CaV 3.1, 3.2, 3.3) is recorded to determine the activity of compounds in blocking the calcium current mediated by the T-type channel alpha-1G, H, or I (CaV 3.1, 3.2, 3.3). In this T-type calcium (Ca^2+) antagonist voltage-clamp assay calcium currents are elicited from the resting state of the human alpha-1G, H, or I (CaV 3.1, 3.2, 3.3) calcium channel as follows. Sequence information for T-type (Low-voltage activated) calcium channels are fully disclosed in e.g., U.S. Pat. No. 5,618,720, U.S. Pat. No. 5,686,241, U.S. Pat. No. 5,710,250,U.S. Pat. No. 5,726,035, U.S. Pat. No. 5,792,846, U.S. Pat. No. 5,846,757, U.S. Pat. No. 5,851,824, U.S. Pat. No. 5,874,236, U.S. Pat. No. 5,876,958, U.S. Pat. No. 6,013,474, U.S. Pat. No. 6,057,114, U.S. Pat. No. 6,096,514, WO 99/28342, and J. Neuroscience, 19 (6):1912-1921 (1999). Cells expressing the t-type channels were grown in H3D5 growth media which is comprised DMEM, 6% bovine calf serum (HYCLONE), 30 micromolar Verapamil, 200 microgram/ml Hygromycin B, 1× Penicillin/Streptomycin. Glass pipettes are pulled to a tip diameter of 1-2 micrometer on a pipette puller. The pipettes are filled with the intracellular solution and a chloridized silver wire is inserted along its length, which is then connected to the headstage of the voltage-clamp amplifier. Trypsinization buffer was 0.05% Trypsin, 0.53 mM EDTA. The extracellular recording solution consists of (mM): 130 mM NaCl, 4 mM KCl, 1 mM MgCl2, 2 mM CaCl2, 10 mM HEPES, 30 Glucose, pH 7.4. The internal solution consists of (mM): 135 mM CsMeSO4, 1 MgCl2, 10 CsCl, 5 EGTA, 10 HEPES, pH 7.4, or 135 mM CsCl, 2 MgCl2, 3 MgATP, 2 Na2ATP, 1 Na2GTP, 5 EGTA, 10 HEPES, pH 7.4. Upon insertion of the pipette tip into the bath, the series resistance is noted (acceptable range is between 1-4 megaohm). The junction potential between the pipette and bath solutions is zeroed on the amplifier. The cell is then patched, the patch broken, and, after compensation for series resistance (>=80%), the voltage protocol is applied while recording the whole cell Ca2+ current response. Voltage protocols: (1) −80 mV holding potential every 20 seconds pulse to −20 mV for 40 msec duration; the effectiveness of the drug in inhibiting the current mediated by the channel is measured directly from measuring the reduction in peak current amplitude initiated by the voltage shift from −80 mV to −20 mV; (2). −100 mV holding potential every 15 seconds pulse to −20 mV for 40 msec duration; the effectiveness of the drug in inhibiting the current mediated by the channel is measured directly from measuring the reduction in peak current amplitude initiated by the shift in potential from −100 mV to […]. The difference in block at the two holding potentials was used to determine the effect of drug at differing levels of inactivation induced by the level of resting state potential of the cells. After obtaining control baseline calcium currents, extracellular solutions containing increasing concentrations of a test compound are washed on. Once steady state inhibition at a given compound concentration is reached, a higher concentration of compound is applied. % inhibition of the peak inward control Ca2+ current during the depolarizing step to −20 mV is plotted as a function of compound concentration.

The target in the next assay is T2, Human Cav2.2 channels (Homo sapiens, UniProt Q00975).
T2 construct: expressed in transfected cells
Put plainly: Block of Cav2.2 (N-type) channels expressed in HEK293 cells. The conditions noted are these: for inhibition at 10 µM / inhibition at 30 µM: HEK293; for inhibition at 10 µM: read-out: Cav 2.2 % Inh @ 10 μM; for inhibition at 30 µM: read-out: Cav 2.2 % Inh @ 30 μM; for IC50: read-out: Cav 2.2 IC50. The text has this: Human Cav2.2 channels were stably expressed in HEK293 cells along with alpha2-delta and beta subunits of voltage-gated calcium channels. An inwardly rectifying potassium channel (Kir2.3) was also expressed in these cells to allow more precise control of the cell membrane potential by extracellular potassium concentration. At low bath potassium concentration, the membrane potential is relatively negative, and is depolarized as the bath potassium concentration is raised. In this way, the bath potassium concentration can be used to regulate the voltage-dependent conformations of the channels. Compounds are incubated with cells in the presence of low (4 mM) potassium or elevated (12, 25 or 30 mM) potassium to determine the affinity for compound block of resting (closed) channels at 4 mM potassium or affinity for block of open and inactivated channels at 12, 25 or 30 mM potassium. After the incubation period, Cav2.2 channel opening is triggered by addition of higher concentration of potassium (70 mM final concentration) to further depolarize the cell. The degree of state-dependent block can be estimated from the inhibitory potency of compounds after incubation in different potassium concentrations.
Calcium influx through Cav2.2 channels is determined using a calcium sensitive fluorescent dye in combination with a fluorescent plate reader. Fluorescent changes were measured with either a VIPR (Aurora Instruments) or FLIPR (Molecular Devices) plate reader.
Protocol • 1. Seed cells in Poly-D-Lysine Coated 96 or 384-well plate and keep in a 37° C.-10% CO2 incubator overnight • 2. Remove media, wash cells with 0.2 mL (96-well plate) or 0.05 mL (384-well plate) Dulbecco's Phosphate Buffered Saline (D-PBS) with calcium & magnesium (Invitrogen; 14040) • 3. Add 0.1 mL (96-well plate) or 0.05 mL (384-well plate) of 4 μM fluor-4 (Molecular Probes; F-14202) and 0.02% Pluronic acid (Molecular Probes; P-3000) prepared in D-PBS with calcium & magnesium (Invitrogen; 14040) supplemented with 10 mM Glucose & 10 mM Hepes/NaOH; pH 7.4 • 4. Incubate in the dark at 25° C. for 60-70 min • 5. Remove dye, wash cells with 0.1 mL (96-well plate) or 0.06 mL (384-well plate) of 4, 12, 25, or 30 mM Potassium Pre-polarization Buffer (PPB) • 6. Add 0.1 mL (96-well plate) or 0.03 mL (384-well plate) of 4, 12, 25, 30 mM PPB with or without test compound • 7. Incubate in the dark at 25° C. for 30 min • 8. Read cell plate on VIPR instrument, Excitation=480 nm, Emission=535 nm • 9. With VIPR continuously reading, add 0.1 mL (96-well plate) or 0.03 mL (384-well plate) of Depolarization Buffer (DB), which is 2× the final assay concentration, to the cell plate.
Block of N-type calcium channels is evaluated utilizing the IonWorks HT 384 well automated patch clamp electrophysiology device. This instrument allows synchronous recording from 384 well (48 at a time). A single whole cell recording is made in each well. Whole cell recording is established by perfusion of the internal compartment with amphotericin B.
The voltage protocol is designed to detect use-dependent block. A 2 Hz train of depolarizations (twenty 25 ms steps to +20 mV). The experimental sequence consists of a control train (pre-compound), incubation of cells with compound for 5 minutes, followed by a second train (post-compound). Use dependent block by compounds is estimated by comparing fractional block of the first pulse in the train to block of the 20th pulse.
Parallel patch clamp electrophysiology is performed using IonWorks HT (Molecular Devices Corp) essentially as described by Kiss and colleagues (Kiss et al. 2003; Assay and Drug Development Technologies, 1:127-135). Briefly, a stable HEK 293 cell line (referred to as CBK) expressing the N-type calcium channel subunits (α1B, α2δ, β3a) and an inwardly rectifying potassium channel (Kir2.3) is used to record barium current through the N-type calcium channel. Cells are grown in T75 culture plates to 60-90% confluence before use. […]

For assay [2], the target named is T3, Cav3.1 (T-type channel alpha-1G) (Homo sapiens, UniProt O43497).
T3 construct: expressed in transfected cells; host or cells: HEK 293
Put plainly: T-type calcium channel voltage-clamp assay, Cav3.1. The following applies: read-out: Cav 3.1 IC50. As for the experimental part:
as §1, §2

T3 sequence (O43497 whole entry): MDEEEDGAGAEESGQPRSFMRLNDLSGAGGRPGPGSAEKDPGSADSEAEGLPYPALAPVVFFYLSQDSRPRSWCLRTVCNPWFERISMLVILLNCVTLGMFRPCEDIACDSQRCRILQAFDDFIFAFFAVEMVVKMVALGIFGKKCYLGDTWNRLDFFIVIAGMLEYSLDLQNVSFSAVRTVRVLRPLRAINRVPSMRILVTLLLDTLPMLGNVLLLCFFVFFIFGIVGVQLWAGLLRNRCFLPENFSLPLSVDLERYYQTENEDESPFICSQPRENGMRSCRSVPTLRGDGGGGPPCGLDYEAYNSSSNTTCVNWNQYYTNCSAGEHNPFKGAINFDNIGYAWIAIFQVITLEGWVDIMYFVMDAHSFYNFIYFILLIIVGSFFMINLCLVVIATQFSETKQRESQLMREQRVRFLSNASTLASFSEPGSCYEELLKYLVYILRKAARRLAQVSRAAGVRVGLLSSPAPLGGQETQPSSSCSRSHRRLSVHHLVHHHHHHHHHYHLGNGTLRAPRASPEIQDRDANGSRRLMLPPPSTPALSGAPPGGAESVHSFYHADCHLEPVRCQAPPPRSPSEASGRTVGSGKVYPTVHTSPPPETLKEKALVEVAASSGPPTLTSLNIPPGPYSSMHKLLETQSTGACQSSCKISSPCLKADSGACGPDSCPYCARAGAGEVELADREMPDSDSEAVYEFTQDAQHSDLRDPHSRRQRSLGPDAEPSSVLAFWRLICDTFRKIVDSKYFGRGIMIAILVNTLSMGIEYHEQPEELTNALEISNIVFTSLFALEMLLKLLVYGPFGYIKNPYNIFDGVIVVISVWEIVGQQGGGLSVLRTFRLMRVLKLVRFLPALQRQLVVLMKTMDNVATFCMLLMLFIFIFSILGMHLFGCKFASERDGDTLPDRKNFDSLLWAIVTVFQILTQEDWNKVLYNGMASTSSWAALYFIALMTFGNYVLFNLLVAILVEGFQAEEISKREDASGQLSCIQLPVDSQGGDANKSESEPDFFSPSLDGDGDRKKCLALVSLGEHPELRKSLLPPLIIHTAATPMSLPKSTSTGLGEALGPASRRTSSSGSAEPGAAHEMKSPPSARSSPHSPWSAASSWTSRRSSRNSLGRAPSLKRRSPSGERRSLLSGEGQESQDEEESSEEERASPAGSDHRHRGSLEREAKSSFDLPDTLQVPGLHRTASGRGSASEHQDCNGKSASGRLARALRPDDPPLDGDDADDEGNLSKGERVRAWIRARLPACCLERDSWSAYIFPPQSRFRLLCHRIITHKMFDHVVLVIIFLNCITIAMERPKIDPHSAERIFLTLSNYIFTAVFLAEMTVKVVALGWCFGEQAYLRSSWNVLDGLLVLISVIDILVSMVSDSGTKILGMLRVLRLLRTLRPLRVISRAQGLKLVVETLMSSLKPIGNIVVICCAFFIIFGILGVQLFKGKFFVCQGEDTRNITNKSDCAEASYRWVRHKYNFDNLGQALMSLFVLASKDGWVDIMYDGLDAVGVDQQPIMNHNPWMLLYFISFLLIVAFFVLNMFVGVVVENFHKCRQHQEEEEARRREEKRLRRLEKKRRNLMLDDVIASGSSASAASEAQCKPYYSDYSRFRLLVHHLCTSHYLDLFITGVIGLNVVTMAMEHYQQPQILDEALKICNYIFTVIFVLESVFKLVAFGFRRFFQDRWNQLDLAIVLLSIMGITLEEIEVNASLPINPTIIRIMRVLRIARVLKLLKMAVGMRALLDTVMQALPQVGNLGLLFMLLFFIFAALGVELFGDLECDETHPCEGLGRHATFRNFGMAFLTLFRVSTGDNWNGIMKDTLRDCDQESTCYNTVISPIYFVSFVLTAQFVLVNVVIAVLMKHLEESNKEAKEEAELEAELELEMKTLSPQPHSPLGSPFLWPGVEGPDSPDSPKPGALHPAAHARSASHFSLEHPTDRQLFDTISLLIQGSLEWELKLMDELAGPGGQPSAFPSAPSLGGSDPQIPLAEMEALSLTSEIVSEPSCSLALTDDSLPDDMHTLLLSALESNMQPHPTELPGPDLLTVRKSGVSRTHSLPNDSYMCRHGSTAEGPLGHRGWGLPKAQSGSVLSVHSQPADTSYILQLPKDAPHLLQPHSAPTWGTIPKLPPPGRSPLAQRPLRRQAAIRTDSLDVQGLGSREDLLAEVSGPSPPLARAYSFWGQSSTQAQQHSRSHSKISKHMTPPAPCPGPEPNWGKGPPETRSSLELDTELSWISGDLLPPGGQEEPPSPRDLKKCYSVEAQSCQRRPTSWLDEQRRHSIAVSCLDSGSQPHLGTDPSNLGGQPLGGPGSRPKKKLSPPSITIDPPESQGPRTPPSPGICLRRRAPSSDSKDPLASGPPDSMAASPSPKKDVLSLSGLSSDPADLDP
T1 sequence (O95180 whole entry): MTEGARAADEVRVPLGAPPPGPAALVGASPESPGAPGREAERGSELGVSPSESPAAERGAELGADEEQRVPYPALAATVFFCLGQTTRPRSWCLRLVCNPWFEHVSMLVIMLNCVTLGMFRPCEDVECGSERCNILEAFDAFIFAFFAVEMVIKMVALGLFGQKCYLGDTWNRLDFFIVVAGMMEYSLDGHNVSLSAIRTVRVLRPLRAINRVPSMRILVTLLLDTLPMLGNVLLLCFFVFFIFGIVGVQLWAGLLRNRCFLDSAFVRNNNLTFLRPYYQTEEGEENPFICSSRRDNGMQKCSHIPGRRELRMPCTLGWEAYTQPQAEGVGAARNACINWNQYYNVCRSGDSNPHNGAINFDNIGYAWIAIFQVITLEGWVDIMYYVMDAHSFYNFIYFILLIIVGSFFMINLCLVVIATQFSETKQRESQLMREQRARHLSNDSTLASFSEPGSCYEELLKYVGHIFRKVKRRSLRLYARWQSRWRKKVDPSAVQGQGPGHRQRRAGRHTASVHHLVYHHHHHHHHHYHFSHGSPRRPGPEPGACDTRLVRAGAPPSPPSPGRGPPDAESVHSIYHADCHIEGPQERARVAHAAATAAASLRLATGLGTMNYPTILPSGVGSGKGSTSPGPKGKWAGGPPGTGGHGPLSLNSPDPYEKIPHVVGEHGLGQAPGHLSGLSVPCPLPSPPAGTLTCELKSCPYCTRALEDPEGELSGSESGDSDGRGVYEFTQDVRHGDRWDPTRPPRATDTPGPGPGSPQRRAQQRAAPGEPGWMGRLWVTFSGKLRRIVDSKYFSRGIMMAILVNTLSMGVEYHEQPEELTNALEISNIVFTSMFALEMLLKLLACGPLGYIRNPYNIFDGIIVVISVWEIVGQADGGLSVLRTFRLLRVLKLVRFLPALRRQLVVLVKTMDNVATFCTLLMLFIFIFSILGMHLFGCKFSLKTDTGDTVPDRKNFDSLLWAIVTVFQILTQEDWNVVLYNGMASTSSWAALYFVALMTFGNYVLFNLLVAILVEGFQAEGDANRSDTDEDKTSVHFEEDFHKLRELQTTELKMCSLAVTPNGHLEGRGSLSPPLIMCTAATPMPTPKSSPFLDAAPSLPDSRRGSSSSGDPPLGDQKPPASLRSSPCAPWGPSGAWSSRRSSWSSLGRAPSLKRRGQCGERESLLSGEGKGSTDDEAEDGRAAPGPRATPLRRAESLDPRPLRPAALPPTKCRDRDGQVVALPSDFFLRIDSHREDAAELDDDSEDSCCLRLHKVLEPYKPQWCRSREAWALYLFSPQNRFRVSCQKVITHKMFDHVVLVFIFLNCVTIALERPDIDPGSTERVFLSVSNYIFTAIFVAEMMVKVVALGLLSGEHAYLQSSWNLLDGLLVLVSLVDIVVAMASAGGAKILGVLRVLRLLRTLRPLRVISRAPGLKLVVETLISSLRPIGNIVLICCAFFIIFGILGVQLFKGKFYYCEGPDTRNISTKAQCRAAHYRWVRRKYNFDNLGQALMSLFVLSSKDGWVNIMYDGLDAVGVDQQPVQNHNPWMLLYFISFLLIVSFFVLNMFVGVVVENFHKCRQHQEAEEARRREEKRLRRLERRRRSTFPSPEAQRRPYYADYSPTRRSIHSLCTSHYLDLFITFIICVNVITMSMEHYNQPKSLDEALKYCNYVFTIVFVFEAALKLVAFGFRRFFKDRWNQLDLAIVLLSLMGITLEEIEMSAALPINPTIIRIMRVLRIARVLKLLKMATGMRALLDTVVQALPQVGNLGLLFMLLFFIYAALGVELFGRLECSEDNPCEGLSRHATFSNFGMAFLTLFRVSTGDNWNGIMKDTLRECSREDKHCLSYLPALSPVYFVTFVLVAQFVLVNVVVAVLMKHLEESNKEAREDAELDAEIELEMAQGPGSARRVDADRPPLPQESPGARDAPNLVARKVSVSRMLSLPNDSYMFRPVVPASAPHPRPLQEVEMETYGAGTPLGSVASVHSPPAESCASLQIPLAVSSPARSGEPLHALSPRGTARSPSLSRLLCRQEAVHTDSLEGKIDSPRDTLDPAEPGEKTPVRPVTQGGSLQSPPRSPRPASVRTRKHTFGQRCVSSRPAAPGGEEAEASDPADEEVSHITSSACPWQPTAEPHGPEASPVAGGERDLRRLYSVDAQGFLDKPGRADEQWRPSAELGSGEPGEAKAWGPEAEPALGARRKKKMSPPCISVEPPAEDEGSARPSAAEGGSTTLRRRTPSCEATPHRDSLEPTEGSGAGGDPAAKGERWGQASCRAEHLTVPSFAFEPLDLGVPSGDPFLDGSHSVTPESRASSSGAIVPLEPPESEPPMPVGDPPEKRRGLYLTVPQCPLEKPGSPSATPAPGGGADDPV

One may read the IC50 as the concentration that gives 50% inhibition. `Cc1ccc(OCC(=O)N2CCN(c3cc(C(C)(C)C)cc(C(C)(C)C)c3)CC2)c(C)c1` [Compound 14, 1-(4-(3,5-di-tert-butylphenyl)piperazin-1-yl)-2-(2,4-dimethylphenoxy)ethanone]: the IC50 in assay [1] came to 1110 nM; on Human Cav2.2 channels it was 1370 nM; in assay [2] it was 1280 nM. Besides, the inhibition at 10 µM at Human Cav2.2 channels is 86%. Moreover, the inhibition at 30 µM at Human Cav2.2 channels worked out at 93%.

Regarding `CC(C)(C)c1cc(N2CCN(C(=O)c3ccc(F)c(C(F)(F)F)c3)CC2)cc(C(C)(C)C)c1` [Compound 16, (4-(3,5-di-tert-butylphenyl)piperazin-1-yl)(4-fluoro-3-(trifluoromethyl)phenyl)methanone], the IC50 in assay [1] amounted to 690 nM. For the same compound, at Human Cav2.2 channels, the inhibition at 10 µM is 96%, the inhibition at 30 µM came out at 90% and the IC50 amounted to 1460 nM. Also, in assay [2], the IC50 was determined as 680 nM.

Regarding `CC(C)(C)C(=O)Nc1cc(C(=O)N2CCN(c3cc(C(C)(C)C)cc(C(C)(C)C)c3)CC2)ccn1` [Compound 22, N-(4-(4-(3,5-di-tert-butylphenyl)piperazine-1-carbonyl)pyridin-2-yl)pivalamide], the IC50 in assay [1] is 70 nM. In addition, at Human Cav2.2 channels, the inhibition at 10 µM came out at 99%, the inhibition at 30 µM came out at 103% and the IC50 was 990 nM. Further, in assay [2], the IC50 turned out to be 50 nM.

In the case of `CC(C)c1cc(C(=O)N2CCN(c3cc(C(C)(C)C)cc(C(C)(C)C)c3)CC2)cs1` [Compound 23, (4-(3,5-di-tert-butylphenyl)piperazin-1-yl)(5-isopropylthiophen-3-yl)methanone], the IC50 in assay [1] was 870 nM. On Human Cav2.2 channels, the inhibition at 10 µM stood at 90%, the inhibition at 30 µM was found to be 97% and the IC50 is 1400 nM. For the same compound, the IC50 in assay [2] was determined as 800 nM.

For the compound `Cc1ccc(C(=O)N2CCN(c3cc(C(C)(C)C)cc(C(C)(C)C)c3)CC2)s1` [Compound 28, (4-(3,5-di-tert-butylphenyl)piperazin-1-yl)(5-methylthiophen-2-yl)methanone], the IC50 in assay [1] is 960 nM; at Human Cav2.2 channels it was 2400 nM; in assay [2] it was 800 nM. In addition, the inhibition at 10 µM on Human Cav2.2 channels came out at 87%. Also, the inhibition at 30 µM on Human Cav2.2 channels stood at 101%.

On to `Cc1ccsc1C(=O)N1CCN(c2cc(C(C)(C)C)cc(C(C)(C)C)c2)CC1` [Compound 29, (4-(3,5-di-tert-butylphenyl)piperazin-1-yl)(3-methylthiophen-2-yl)methanone], for which the IC50 in assay [1] is 1010 nM. On Human Cav2.2 channels, the inhibition at 10 µM is 88%, the inhibition at 30 µM was 101% and the IC50 is 2000 nM. Besides, the IC50 in assay [2] stood at 840 nM.

Turning to `Cc1nc(C(F)(F)F)ccc1C(=O)N1CCN(c2cc(C(C)(C)C)cc(C(C)(C)C)c2)CC1` [Compound 30, (4-(3,5-di-tert-butylphenyl)piperazin-1-yl)(2-methyl-6-(trifluoromethyl)pyridin-3-yl)methanone], in assay [1], the IC50 is 1150 nM. Further, on Human Cav2.2 channels, the inhibition at 10 µM stood at 91%, the inhibition at 30 µM stood at 100% and the IC50 stood at 1300 nM. Further, the IC50 in assay [2] turned out to be 970 nM.

As for `CCCSc1ncccc1C(=O)N1CCN(c2cc(C(C)(C)C)cc(C(C)(C)C)c2)CC1` [Compound 31, (4-(3,5-di-tert-butylphenyl)piperazin-1-yl)(2-(propylthio)pyridin-3-yl)methanone], the IC50 in assay [1] is 1590 nM. On Human Cav2.2 channels, the inhibition at 10 µM was 99%, the inhibition at 30 µM is 104% and the IC50 stood at 850 nM. For the same compound, the IC50 in assay [2] was determined as 1250 nM.

As to `Cc1nc(C)c(C(=O)N2CCN(c3cc(C(C)(C)C)cc(C(C)(C)C)c3)CC2)s1` [Compound 32, (4-(3,5-di-tert-butylphenyl)piperazin-1-yl)(2,4-dimethylthiazol-5-yl)methanone], the IC50 in assay [1] stood at 1150 nM. In addition, at Human Cav2.2 channels, the inhibition at 10 µM came to 98%, the inhibition at 30 µM is 98% and the IC50 worked out at 780 nM. Moreover, the IC50 in assay [2] came to 1090 nM.

Turning to `CCn1nc(C)cc1C(=O)N1CCN(c2cc(C(C)(C)C)cc(C(C)(C)C)c2)CC1` [Compound 33, (4-(3,5-di-tert-butylphenyl)piperazin-1-yl)(1-ethyl-3-methyl-1H-pyrazol-5-yl)methanone], the IC50 in assay [1] is 2520 nM; on Human Cav2.2 channels, 830 nM; in assay [2], 2340 nM. Besides, the inhibition at 10 µM on Human Cav2.2 channels was determined as 97%. For the same compound, the inhibition at 30 µM at Human Cav2.2 channels was 95%.
